Experimental data from PubChem BioAssay (NCI).
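Cells were grown in 96-well plates and exposed to each compound for 48 hours at five concentrations; endpoints were interpolated linearly between bracketing concentrations, or set to the highest concentration if not reached. At the TGI there is no net growth.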

How the values were obtained:
Experiment in all cases: growth of human tumour cells (NCI), 48 h
RXF 393 renal = test system: RXF 393 renal
SF-539 CNS = test system: SF-539 CNS
HOP-62 NSCLC = test system: HOP-62 NSCLC
OVCAR-8 ovarian = test system: OVCAR-8 ovarian
HOP-92 NSCLC = test system: HOP-92 NSCLC
CCRF-CEM leukemia = test system: CCRF-CEM leukemia
786-0 renal = test system: 786-0 renal
KM12 colon = test system: KM12 colon
MDA-MB-435 = test system: MDA-MB-435
TK-10 renal = test system: TK-10 renal
MALME-3M melanoma = test system: MALME-3M melanoma
COLO 205 colon = test system: COLO 205 colon
HCT-15 colon = test system: HCT-15 colon
OVCAR-3 ovarian = test system: OVCAR-3 ovarian
NCI-H522 lung = test system: NCI-H522 lung
MCF7 breast = test system: MCF7 breast
SW-620 colon = test system: SW-620 colon
SN12C renal = test system: SN12C renal
MDA-N = test system: MDA-N
NCI/ADR-RES ovarian = test system: NCI/ADR-RES ovarian
NCI-H226 lung = test system: NCI-H226 lung
IGROV1 ovarian = test system: IGROV1 ovarian
CAKI-1 renal = test system: CAKI-1 renal
RPMI-8226 leukemia = test system: RPMI-8226 leukemia
UACC-62 melanoma = test system: UACC-62 melanoma
OVCAR-4 ovarian = test system: OVCAR-4 ovarian
SK-MEL-5 melanoma = test system: SK-MEL-5 melanoma
K-562 leukemia = test system: K-562 leukemia
A498 renal = test system: A498 renal
T-47D breast = test system: T-47D breast
SF-295 CNS = test system: SF-295 CNS
LOX IMVI melanoma = test system: LOX IMVI melanoma
SNB-75 CNS = test system: SNB-75 CNS
SNB-19 CNS = test system: SNB-19 CNS
EKVX NSCLC = test system: EKVX NSCLC
BT-549 breast = test system: BT-549 breast
SK-MEL-28 melanoma = test system: SK-MEL-28 melanoma
U251 CNS = test system: U251 CNS
HCT-116 colon = test system: HCT-116 colon
SF-268 CNS = test system: SF-268 CNS
SK-MEL-2 melanoma = test system: SK-MEL-2 melanoma
HL-60(TB) leukemia = test system: HL-60(TB) leukemia
HCC-2998 colon = test system: HCC-2998 colon
OVCAR-5 ovarian = test system: OVCAR-5 ovarian
SK-OV-3 ovarian = test system: SK-OV-3 ovarian
MDA-MB-231 breast = test system: MDA-MB-231 breast
HS 578T breast = test system: HS 578T breast
UO-31 renal = test system: UO-31 renal
NCI-H460 lung = test system: NCI-H460 lung
M14 melanoma = test system: M14 melanoma
HT29 colon = test system: HT29 colon
DU-145 prostate = test system: DU-145 prostate
NCI-H23 lung = test system: NCI-H23 lung
PC-3 prostate = test system: PC-3 prostate
UACC-257 melanoma = test system: UACC-257 melanoma
ACHN renal = test system: ACHN renal
A549 NSCLC = test system: A549 NSCLC
MOLT-4 leukemia = test system: MOLT-4 leukemia

Structure (SMILES): O=C(/C=C1\C[C@H]2C=Nc3ccccc3C(=O)N2C1)NCCCCNC(=O)/C=C1\C[C@H]2C=Nc3ccccc3C(=O)N2C1
- TGI (RXF 393 renal): 19.2 µM
- TGI (SF-539 CNS): 30.5 µM
- TGI (HOP-62 NSCLC): 38.5 µM
- TGI (OVCAR-8 ovarian): 9.76 µM
- TGI (HOP-92 NSCLC): 20.4 µM
- TGI (CCRF-CEM leukemia): 4.82 µM
- TGI (786-0 renal): 3.32 µM
- TGI (KM12 colon): 33.3 µM
- TGI (MDA-MB-435): 21 µM
- TGI (TK-10 renal): 23.8 µM
- TGI (MALME-3M melanoma): 18 µM
- TGI (COLO 205 colon): 14.8 µM
- TGI (HCT-15 colon): 27.7 µM
- TGI (OVCAR-3 ovarian): 36.3 µM
- TGI (NCI-H522 lung): 3.57 µM
- TGI (MCF7 breast): 35.1 µM
- TGI (SW-620 colon): 7.58 µM
- TGI (SN12C renal): 11.4 µM
- TGI (MDA-N): 24.3 µM
- TGI (NCI/ADR-RES ovarian): 47.1 µM
- TGI (NCI-H226 lung): 59.5 µM
- TGI (IGROV1 ovarian): 27.8 µM
- TGI (CAKI-1 renal): 6.4 µM
- TGI (RPMI-8226 leukemia): 18.6 µM
- TGI (UACC-62 melanoma): 29 µM
- TGI (OVCAR-4 ovarian): 26.1 µM
- TGI (SK-MEL-5 melanoma): 27.1 µM
- TGI (K-562 leukemia): > 33.5 µM
- TGI (A498 renal): 32.9 µM
- TGI (T-47D breast): 22.3 µM
- TGI (SF-295 CNS): 35.4 µM
- TGI (LOX IMVI melanoma): 6.35 µM
- TGI (SNB-75 CNS): 31.9 µM
- TGI (SNB-19 CNS): 31.8 µM
- TGI (EKVX NSCLC): 33.7 µM
- TGI (BT-549 breast): 26.1 µM
- TGI (SK-MEL-28 melanoma): 33.3 µM
- TGI (U251 CNS): 11.3 µM
- TGI (HCT-116 colon): 25.9 µM
- TGI (SF-268 CNS): 25 µM
- TGI (SK-MEL-2 melanoma): 29.2 µM
- TGI (HL-60(TB) leukemia): 12.6 µM
- TGI (HCC-2998 colon): 32.9 µM
- TGI (OVCAR-5 ovarian): 34.4 µM
- TGI (SK-OV-3 ovarian): 34.4 µM
- TGI (MDA-MB-231 breast): 0.986 µM
- TGI (HS 578T breast): > 88.7 µM
- TGI (UO-31 renal): 5.77 µM
- TGI (NCI-H460 lung): 37.5 µM
- TGI (M14 melanoma): 19.5 µM
- TGI (HT29 colon): 31.4 µM
- TGI (DU-145 prostate): 29.7 µM
- TGI (NCI-H23 lung): 27 µM
- TGI (PC-3 prostate): 27.7 µM
- TGI (UACC-257 melanoma): 27.1 µM
- TGI (ACHN renal): 12.6 µM
- TGI (A549 NSCLC): 49.1 µM

Structure (SMILES): O=C(O)CNc1ccc(C(=O)O)cc1
- TGI (RXF 393 renal): > 100 µM
- TGI (SF-539 CNS): > 100 µM
- TGI (HOP-62 NSCLC): > 100 µM
- TGI (OVCAR-8 ovarian): > 100 µM
- TGI (HOP-92 NSCLC): > 100 µM
- TGI (CCRF-CEM leukemia): > 100 µM
- TGI (786-0 renal): > 100 µM
- TGI (KM12 colon): > 100 µM
- TGI (MDA-MB-435): > 100 µM
- TGI (TK-10 renal): > 100 µM
- TGI (MALME-3M melanoma): > 100 µM
- TGI (COLO 205 colon): > 100 µM
- TGI (MOLT-4 leukemia): > 100 µM
- TGI (HCT-15 colon): > 100 µM
- TGI (OVCAR-3 ovarian): > 100 µM
- TGI (NCI-H522 lung): > 100 µM
- TGI (MCF7 breast): > 100 µM
- TGI (SW-620 colon): > 100 µM
- TGI (SN12C renal): > 100 µM
- TGI (MDA-N): > 100 µM
- TGI (NCI/ADR-RES ovarian): > 100 µM
- TGI (NCI-H226 lung): > 100 µM
- TGI (IGROV1 ovarian): > 100 µM
- TGI (CAKI-1 renal): > 100 µM
- TGI (RPMI-8226 leukemia): > 100 µM
- TGI (UACC-62 melanoma): > 100 µM
- TGI (OVCAR-4 ovarian): > 100 µM
- TGI (SK-MEL-5 melanoma): > 100 µM
- TGI (K-562 leukemia): > 100 µM
- TGI (A498 renal): > 100 µM
- TGI (T-47D breast): > 100 µM
- TGI (SF-295 CNS): > 100 µM
- TGI (LOX IMVI melanoma): > 100 µM
- TGI (SNB-75 CNS): > 100 µM
- TGI (SNB-19 CNS): > 100 µM
- TGI (EKVX NSCLC): > 100 µM
- TGI (BT-549 breast): > 100 µM
- TGI (SK-MEL-28 melanoma): > 100 µM
- TGI (U251 CNS): > 100 µM
- TGI (HCT-116 colon): > 100 µM
- TGI (SF-268 CNS): > 100 µM
- TGI (SK-MEL-2 melanoma): > 100 µM
- TGI (HL-60(TB) leukemia): > 100 µM
- TGI (OVCAR-5 ovarian): > 100 µM
- TGI (SK-OV-3 ovarian): > 100 µM
- TGI (MDA-MB-231 breast): > 100 µM
- TGI (HS 578T breast): > 100 µM
- TGI (UO-31 renal): > 100 µM
- TGI (NCI-H460 lung): > 100 µM
- TGI (M14 melanoma): > 100 µM
- TGI (HT29 colon): > 100 µM
- TGI (DU-145 prostate): > 100 µM
- TGI (NCI-H23 lung): > 100 µM
- TGI (PC-3 prostate): > 100 µM
- TGI (UACC-257 melanoma): > 100 µM
- TGI (ACHN renal): > 100 µM
- TGI (A549 NSCLC): > 100 µM

Structure (SMILES): CCOC(=O)Cc1csc2[n+]1C(=O)/C(=C/c1cccc(OC)c1O)S2
- TGI (SF-539 CNS): > 100 µM
- TGI (HOP-62 NSCLC): > 100 µM
- TGI (OVCAR-8 ovarian): > 100 µM
- TGI (HOP-92 NSCLC): > 100 µM
- TGI (786-0 renal): > 100 µM
- TGI (KM12 colon): > 100 µM
- TGI (MDA-MB-435): 50.5 µM
- TGI (TK-10 renal): > 100 µM
- TGI (COLO 205 colon): > 100 µM
- TGI (MOLT-4 leukemia): > 100 µM
- TGI (HCT-15 colon): > 100 µM
- TGI (OVCAR-3 ovarian): > 100 µM
- TGI (MCF7 breast): > 100 µM
- TGI (SW-620 colon): > 100 µM
- TGI (SN12C renal): > 100 µM
- TGI (MDA-N): > 100 µM
- TGI (NCI/ADR-RES ovarian): > 100 µM
- TGI (NCI-H226 lung): > 100 µM
- TGI (IGROV1 ovarian): > 100 µM
- TGI (CAKI-1 renal): > 100 µM
- TGI (UACC-62 melanoma): > 100 µM
- TGI (OVCAR-4 ovarian): > 100 µM
- TGI (SK-MEL-5 melanoma): > 100 µM
- TGI (T-47D breast): > 100 µM
- TGI (SF-295 CNS): > 100 µM
- TGI (LOX IMVI melanoma): > 100 µM
- TGI (SNB-75 CNS): > 100 µM
- TGI (SNB-19 CNS): > 100 µM
- TGI (EKVX NSCLC): > 100 µM
- TGI (BT-549 breast): 48.9 µM
- TGI (SK-MEL-28 melanoma): > 100 µM
- TGI (U251 CNS): > 100 µM
- TGI (HCT-116 colon): > 100 µM
- TGI (SK-MEL-2 melanoma): > 100 µM
- TGI (HL-60(TB) leukemia): > 100 µM
- TGI (HCC-2998 colon): > 100 µM
- TGI (OVCAR-5 ovarian): > 100 µM
- TGI (SK-OV-3 ovarian): > 100 µM
- TGI (MDA-MB-231 breast): > 100 µM
- TGI (UO-31 renal): > 100 µM
- TGI (NCI-H460 lung): > 100 µM
- TGI (M14 melanoma): > 100 µM
- TGI (HT29 colon): > 100 µM
- TGI (DU-145 prostate): > 100 µM
- TGI (NCI-H23 lung): > 100 µM
- TGI (PC-3 prostate): > 100 µM
- TGI (UACC-257 melanoma): > 100 µM
- TGI (ACHN renal): > 100 µM
- TGI (A549 NSCLC): > 100 µM
